Assay results from patent US10428044B2, “3-amino-1,5,6,7-tetrahydro-4H-indol-4-ones” (Bayer Pharma Aktiengesellschaft, priority 2014, dated 2019).

Biological target: (recombinant) catalytic domain of human Bub1 (amino acids 704-1085) (Homo sapiens (Human), UniProt O43683)
Assay: Bub1 kinase assay (TR-FRET)
Format: biochemical
Conditions: ATP 10 μM final, peptide substrate 1 μM final, 60 min at 22° C., read-out: Biological Assay: Bub1 kinase assay median IC50
In short: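 Compounds were serially diluted 1:3.4 from 2 mM DMSO stocks and incubated with the enzyme reaction for 60 min at 22° C. The reaction was stopped with EDTA, and biotinylated peptide phosphorylation was read by TR-FRET using Eu anti-mouse IgG, anti-phosphoserine antibody and streptavidin-XL665. IC50 was fitted by 4-parameter logistic to inhibition normalized to no-inhibitor and no-enzyme controls.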

Sequence of (recombinant) catalytic domain of human Bub1 (amino acids 704-1085) (O43683 704-1085): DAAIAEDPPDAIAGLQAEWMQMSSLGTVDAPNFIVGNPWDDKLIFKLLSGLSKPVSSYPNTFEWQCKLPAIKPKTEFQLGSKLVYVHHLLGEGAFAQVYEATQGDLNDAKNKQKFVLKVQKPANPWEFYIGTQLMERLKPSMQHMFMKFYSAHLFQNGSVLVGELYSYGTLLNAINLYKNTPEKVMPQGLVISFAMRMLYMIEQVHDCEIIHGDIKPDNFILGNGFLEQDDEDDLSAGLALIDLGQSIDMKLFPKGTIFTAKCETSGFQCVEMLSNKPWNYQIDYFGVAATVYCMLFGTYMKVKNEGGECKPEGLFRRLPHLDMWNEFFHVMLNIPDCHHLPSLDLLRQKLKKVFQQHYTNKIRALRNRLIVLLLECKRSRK

Row | IC50 | Compound
1 | 2360 nM | CC1(C)CC(=O)c2c([nH]c(-c3ccncc3)c2Nc2ccc(S(N)(=O)=O)cc2)C1 [Example 432, 4-{[6,6-dimethyl-4-oxo-2-(pyridin-4-yl)-4,5,6,7-tetrahydro-1H-indol-3-yl]amino}benzenesulfonamide]
2 | 2930 nM | CC1(C)CC(=O)c2c([nH]c(-c3ccncc3)c2Nc2ccc(C#N)cc2)C1 [Example 433, 4-{[6,6-dimethyl-4-oxo-2-(pyridin-4-yl)-4,5,6,7-tetrahydro-1H-indol-3-yl]amino}benzonitrile]
3 | 1380 nM | CN(C)c1ccc(Nc2c(-c3ccncc3)[nH]c3c2C(=O)CC(C)(C)C3)cc1 [Example 435, 3-{[4-(dimethylamino)phenyl]amino}-6,6-dimethyl-2-(pyridin-4-yl)-1,5,6,7-tetrahydro-4H-indol-4-one]
4 | 20.9 nM | O=C1CC(C(F)(F)F)Cc2[nH]c(-c3ccncc3Cl)c(Nc3cccc(F)c3)c21 (centres unmarked) [Example 436, 2-(3-chloropyridin-4-yl)-3-[(3-fluorophenyl)amino]-6-(trifluoromethyl)-1,5,6,7-tetrahydro-4H-indol-4-one]
5 | 579 nM | CC1(C)CC(=O)c2c([nH]c(-c3ccnc(CO)c3)c2Nc2ccccc2)C1 [Example 437, 2-[2-(hydroxymethyl)pyridin-4-yl]-6,6-dimethyl-3-(phenylamino)-1,5,6,7-tetrahydro-4H-indol-4-one]
6 | 345 nM | CC1(C)CC(=O)c2c([nH]c(-c3ccncc3C(F)(F)F)c2Nc2ccccc2)C1 [Example 438, 6,6-dimethyl-3-(phenylamino)-2-[3-(trifluoromethyl)pyridin-4-yl]-1,5,6,7-tetrahydro-4H-indol-4-one]
7 | 649 nM | CC1(C)CC(=O)c2c([nH]c(-c3ccnc(S(N)(=O)=O)c3)c2Nc2ccccc2)C1 [Example 439, 4-[6,6-dimethyl-4-oxo-3-(phenylamino)-4,5,6,7-tetrahydro-1H-indol-2-yl]pyridine-2-sulfonamide]
8 | 6.97 nM | O=C1CC(CF)Cc2[nH]c(-c3ccncc3)c(Nc3ccccc3)c21 (centres unmarked) [Example 442, 6-(fluoromethyl)-3-(phenylamino)-2-(pyridin-4-yl)-1,5,6,7-tetrahydro-4H-indol-4-one]
9 | 5.05 nM | O=C1CC(CCl)Cc2[nH]c(-c3ccncc3)c(Nc3ccccc3)c21 (centres unmarked) [Example 443, 6-(chloromethyl)-3-(phenylamino)-2-(pyridin-4-yl)-1,5,6,7-tetrahydro-4H-indol-4-one]
10 | 4.61 nM | CC(=O)Nc1cc(-c2[nH]c3c(c2Nc2ccccc2)C(=O)CC(CCl)C3)ccn1 (centres unmarked) [Example 444, N-{4-[6-(chloromethyl)-4-oxo-3-(phenylamino)-4,5,6,7-tetrahydro-1H-indol-2-yl]pyridin-2-yl}acetamide]
11 | 10 nM | CC1(C)CC(=O)c2c([nH]c(-c3ccncc3)c2Nc2ccccc2)C1O (centres unmarked) [Example 445, 7-hydroxy-6,6-dimethyl-3-(phenylamino)-2-(pyridin-4-yl)-1,5,6,7-tetrahydro-4H-indol-4-one]
12 | 40.1 nM | O=C1CCC(O)c2[nH]c(-c3ccncc3)c(Nc3ccccc3)c21 (centres unmarked) [Example 446, 7-hydroxy-3-(phenylamino)-2-(pyridin-4-yl)-1,5,6,7-tetrahydro-4H-indol-4-one]
13 | 11.2 nM | Cn1cc(C(=O)Nc2cc(-c3[nH]c4c(c3Nc3ccccc3)C(=O)CCC4)ccn2)cn1 [Example 447, 1-methyl-N-{4-[4-oxo-3-(phenylamino)-4,5,6,7-tetrahydro-1H-indol-2-yl]pyridin-2-yl}-1H-pyrazole-4-carboxamide]
14 | 8.93 nM | CC(C)(C)n1cc(C(=O)Nc2cc(-c3[nH]c4c(c3Nc3ccccc3)C(=O)CCC4)ccn2)cn1 [Example 448, 1-tert-butyl-N-{4-[4-oxo-3-(phenylamino)-4,5,6,7-tetrahydro-1H-indol-2-yl]pyridin-2-yl}-1H-pyrazole-4-carboxamide]
15 | 4.38 nM | O=C(Nc1cc(-c2[nH]c3c(c2Nc2ccccc2)C(=O)CCC3)ccn1)c1cnn(Cc2ccccc2)c1 [Example 449, 1-benzyl-N-{4-[4-oxo-3-(phenylamino)-4,5,6,7-tetrahydro-1H-indol-2-yl]pyridin-2-yl}-1H-pyrazole-4-carboxamide]
16 | 6.24 nM | COc1ccc(Cn2cc(C(=O)Nc3cc(-c4[nH]c5c(c4Nc4ccccc4)C(=O)CCC5)ccn3)cn2)cc1 [Example 450, 1-(4-methoxybenzyl)-N-{4-[4-oxo-3-(phenylamino)-4,5,6,7-tetrahydro-1H-indol-2-yl]pyridin-2-yl}-1H-pyrazole-4-carboxamide]
17 | 8.82 nM | O=C(Nc1cc(-c2[nH]c3c(c2Nc2ccccc2)C(=O)CCC3)ccn1)c1ccc(F)c(F)c1 [Example 451, 3,4-difluoro-N-{4-[4-oxo-3-(phenylamino)-4,5,6,7-tetrahydro-1H-indol-2-yl]pyridin-2-yl}benzamide]
18 | 19.2 nM | O=C(Nc1cc(-c2[nH]c3c(c2Nc2ccccc2)C(=O)CCC3)ccn1)c1cc(F)cc(F)c1 [Example 452, 3,5-difluoro-N-{4-[4-oxo-3-(phenylamino)-4,5,6,7-tetrahydro-1H-indol-2-yl]pyridin-2-yl}benzamide]

Row | IC50 | Compound
19 | 10 nM | COc1cc(C(=O)Nc2cc(-c3[nH]c4c(c3Nc3ccccc3)C(=O)CCC4)ccn2)ccc1F [Example 453, 4-fluoro-3-methoxy-N-{4-[4-oxo-3-(phenylamino)-4,5,6,7-tetrahydro-1H-indol-2-yl]pyridin-2-yl}benzamide]
20 | 7.33 nM | Cn1ccc(C(=O)Nc2cc(-c3[nH]c4c(c3Nc3ccccc3)C(=O)CCC4)ccn2)n1 [Example 454, 1-methyl-N-{4-[4-oxo-3-(phenylamino)-4,5,6,7-tetrahydro-1H-indol-2-yl]pyridin-2-yl}-1H-pyrazole-3-carboxamide]
21 | 24.4 nM | O=C1CCCc2[nH]c(-c3ccncc3OCC3CC3)c(Nc3ccccc3)c21 [Example 455, 2-[3-(cyclopropylmethoxy)pyridin-4-yl]-3-(phenylamino)-1,5,6,7-tetrahydro-4H-indol-4-one]
22 | 73.3 nM | CCCOc1cnccc1-c1[nH]c2c(c1Nc1ccccc1)C(=O)CCC2 [Example 456, 3-(phenylamino)-2-(3-propoxypyridin-4-yl)-1,5,6,7-tetrahydro-4H-indol-4-one]
23 | 53.5 nM | O=C1CCCc2[nH]c(-c3ccncc3OCC(F)F)c(Nc3ccccc3)c21 [Example 457, 2-[3-(2,2-difluoroethoxy)pyridin-4-yl]-3-(phenylamino)-1,5,6,7-tetrahydro-4H-indol-4-one]
24 | 78.7 nM | O=C1CCCc2[nH]c(-c3ccncc3OCC(F)(F)F)c(Nc3ccccc3)c21 [Example 458, 3-(phenylamino)-2-[3-(2,2,2-trifluoroethoxy)pyridin-4-yl]-1,5,6,7-tetrahydro-4H-indol-4-one]
25 | 58.8 nM | O=C1CCCc2[nH]c(-c3ccncc3OCCO)c(Nc3ccccc3)c21 [Example 459, 2-[3-(2-hydroxyethoxy)pyridin-4-yl]-3-(phenylamino)-1,5,6,7-tetrahydro-4H-indol-4-one]
26 | 19.7 nM | CC1(C)OC[C@@H](C(=O)Nc2cc(-c3[nH]c4c(c3Nc3ccccc3)C(=O)CCC4)ccn2)O1 [Example 460, (4S)-2,2-dimethyl-N-{4-[4-oxo-3-(phenylamino)-4,5,6,7-tetrahydro-1H-indol-2-yl]pyridin-2-yl}-1,3-dioxolane-4-carboxamide]
27 | 6.88 nM | CC(=O)Nc1cc(-c2[nH]c3c(c2Nc2ccccc2)C(=O)CC(CF)C3)ccn1 (centres unmarked) [Example 461, N-{4-[6-(fluoromethyl)-4-oxo-3-(phenylamino)-4,5,6,7-tetrahydro-1H-indol-2-yl]pyridin-2-yl}acetamide]
28 | 18.2 nM | O=C(COc1ccc(F)cc1)Nc1cc(-c2[nH]c3c(c2Nc2ccccc2)C(=O)CCC3)ccn1 [Example 462, N-[4-(3-anilino-4-oxo-4,5,6,7-tetrahydro-1H-indol-2-yl)pyridin-2-yl]-2-(4-fluorophenoxy)acetamide]
29 | 142 nM | Cn1ccnc1CC(=O)Nc1cc(-c2[nH]c3c(c2Nc2ccccc2)C(=O)CCC3)ccn1 [Example 463, N-[4-(3-anilino-4-oxo-4,5,6,7-tetrahydro-1H-indol-2-yl)pyridin-2-yl]-2-(1-methyl-1H-imidazol-2-yl)acetamide]
30 | 58.9 nM | CC1(C)CC(=O)c2c([nH]c(-c3ccncc3O)c2Nc2ccccc2)C1 [Example 464, 3-anilino-2-(3-hydroxypyridin-4-yl)-6,6-dimethyl-1,5,6,7-tetrahydro-4H-indol-4-one]
31 | 7.19 nM | CC1(C)CC(=O)c2c([nH]c(-c3ccnc(NC(=O)c4ccn[nH]4)c3)c2Nc2ccccc2)C1 [Example 465, N-{4-[6,6-dimethyl-4-oxo-3-(phenylamino)-4,5,6,7-tetrahydro-1H-indol-2-yl]pyridin-2-yl}-1H-pyrazole-3-carboxamide]
32 | 23.3 nM | CC1(C)CC(=O)c2c([nH]c(-c3ccnc(NC(=O)c4cc(F)cc(F)c4)c3)c2Nc2ccccc2)C1 [Example 467, N-{4-[6,6-dimethyl-4-oxo-3-(phenylamino)-4,5,6,7-tetrahydro-1H-indol-2-yl]pyridin-2-yl}-3,5-difluorobenzamide]
33 | > 20000 nM | CC1(C)CC(=O)c2c([nH]c(-c3ccnc(OCc4ccccc4)c3)c2Nc2ccccc2)C1 [Example 468, 2-[2-(benzyloxy)pyridin-4-yl]-6,6-dimethyl-3-(phenylamino)-1,5,6,7-tetrahydro-4H-indol-4-one]
34 | 2160 nM | CC1(C)CC(=O)c2c([nH]c(-c3ccnc(O)c3)c2Nc2ccccc2)C1 [Example 469, 2-(2-hydroxypyridin-4-yl)-6,6-dimethyl-3-(phenylamino)-1,5,6,7-tetrahydro-4H-indol-4-one]
35 | 4.49 nM | O=C(Nc1cc(-c2[nH]c3c(c2Nc2ccccc2)C(=O)CC2(CC2)C3)ccn1)c1cocn1 [Example 470, N-{4-[4′-oxo-3′-(phenylamino)-1′,4′,5′,7′-tetrahydrospiro[cyclopropane-1,6′-indol]-2′-yl]pyridin-2-yl}-1,3-oxazole-4-carboxamide]
